Results taken from ChEMBL document CHEMBL1201862, “PubChem BioAssay data set” (2004).
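Dose response: 5 concentrations. Exposure: 48 h. Format: 96-well plates. Endpoint: linear interpolation; highest concentration if not reached. The concentration for 50% growth inhibition is given as GI50.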 The source made the active and inactive calls. No stated cut-off is given here; in the data, active = GI50 up to about 1.1 µM and inactive = higher.

Experiments:
Assay in all cases: NCI tumour cell line growth inhibition, 48 h
MDA-MB-231 = tested on: MDA-MB-231
SN12C = tested on: SN12C
IGROV-1 = tested on: IGROV-1
COLO 205 = tested on: COLO 205
ACHN = tested on: ACHN
HCC 2998 = tested on: HCC 2998
RPMI-8226 = tested on: RPMI-8226
SW-620 = tested on: SW-620
MCF7 = tested on: MCF7
EKVX = tested on: EKVX
A549 = tested on: A549
SNB-75 = tested on: SNB-75
RXF 393 = tested on: RXF 393
SF-539 = tested on: SF-539
OVCAR-3 = tested on: OVCAR-3
M14 = tested on: M14
SK-MEL-28 = tested on: SK-MEL-28
SK-MEL-5 = tested on: SK-MEL-5
UACC-62 = tested on: UACC-62
MDA-N = tested on: MDA-N

Compound | GI50 (MDA-MB-231) | GI50 (SN12C) | GI50 (IGROV-1) | GI50 (COLO 205) | GI50 (ACHN) | GI50 (HCC 2998) | GI50 (RPMI-8226) | GI50 (SW-620) | GI50 (MCF7) | GI50 (EKVX) | GI50 (A549) | GI50 (SNB-75) | GI50 (RXF 393) | GI50 (SF-539) | GI50 (OVCAR-3) | GI50 (M14) | GI50 (SK-MEL-28) | GI50 (SK-MEL-5) | GI50 (UACC-62) | GI50 (MDA-N)
O=C1/C(=C/C=C/c2ccccc2)CCC1CNc1ccccc1 (stereo not drawn) | 22 µM (inactive) | 23.2 µM (inactive) | 23.4 µM (inactive) | 28.9 µM (inactive) | 76.9 µM (inactive) | > 68.5 µM (inactive) | 1.59 µM (inactive) | 18.4 µM (inactive) | 6.49 µM (inactive) | > 100 µM (inactive) | > 66.2 µM (inactive) | > 100 µM (inactive) | 19.8 µM (inactive) | > 54.5 µM (inactive) | 23.7 µM (inactive) | 30.2 µM (inactive) | 44.6 µM (inactive) | 67 µM (inactive) | 50.4 µM (inactive) | 
Nc1nc(Cl)cc(NCCCCCCCCNc2cc(Cl)nc(N)n2)n1 |  | 57.4 µM (inactive) | 23.7 µM (inactive) | 26.4 µM (inactive) | 0.221 µM (active) | 65.6 µM (inactive) | 2.4 µM (inactive) | 36.8 µM (inactive) |  | > 100 µM (inactive) | 3.56 µM (inactive) | 25.9 µM (inactive) | 12.2 µM (inactive) | 28.7 µM (inactive) | 3.2 µM (inactive) | 19.2 µM (inactive) | 31.8 µM (inactive) | 0.675 µM (active) | 1.36 µM (inactive) | 
O=C(O/N=c1/ccc(=O)/c(=N\OC(=O)c2ccccc2)c1=O)c1ccccc1 |  | > 100 µM (inactive) | 89.3 µM (inactive) | > 100 µM (inactive) | > 100 µM (inactive) | > 100 µM (inactive) | 79.8 µM (inactive) | > 100 µM (inactive) | 1.81 µM (inactive) | > 100 µM (inactive) | > 100 µM (inactive) | > 100 µM (inactive) | > 100 µM (inactive) | > 100 µM (inactive) | > 100 µM (inactive) | > 100 µM (inactive) | > 100 µM (inactive) | > 100 µM (inactive) |  | > 100 µM (inactive)
Cc1c(Cl)cccc1N1C(=O)C(Cl)=C(Cl)C1=O |  | > 100 µM (inactive) | > 100 µM (inactive) | > 65.9 µM (inactive) | > 100 µM (inactive) | > 100 µM (inactive) | 43 µM (inactive) | > 58.2 µM (inactive) |  | > 100 µM (inactive) | > 100 µM (inactive) | > 100 µM (inactive) | 44.4 µM (inactive) | > 100 µM (inactive) | > 100 µM (inactive) | > 100 µM (inactive) | > 100 µM (inactive) | > 100 µM (inactive) | > 100 µM (inactive) | 
CCC12CC[C@H](C#N)N3CCc4c(n(c5ccccc45)C(=O)C1)C32 (stereo partly drawn) |  | 19.4 µM (inactive) | 24.8 µM (inactive) | 19.1 µM (inactive) | > 10 µM (inactive) | 15.8 µM (inactive) | 17.9 µM (inactive) | 14.9 µM (inactive) |  | 23 µM (inactive) | 15.9 µM (inactive) | 5.56 µM (inactive) | 13.3 µM (inactive) | 17.5 µM (inactive) | 13.3 µM (inactive) | 16.4 µM (inactive) | 15.2 µM (inactive) | 12.7 µM (inactive) | 12.2 µM (inactive) | 
Cc1ccc(-c2[nH]c(=O)n(C3OC(CO)C(O)C(O)C3O)c(=O)c2C#N)cc1 (stereo not drawn) | > 100 µM (inactive) | > 100 µM (inactive) | > 100 µM (inactive) | > 100 µM (inactive) | > 100 µM (inactive) | > 100 µM (inactive) | > 100 µM (inactive) | > 100 µM (inactive) | > 100 µM (inactive) | > 100 µM (inactive) | > 100 µM (inactive) | > 100 µM (inactive) | > 100 µM (inactive) | > 100 µM (inactive) | > 100 µM (inactive) | > 100 µM (inactive) | > 100 µM (inactive) | > 100 µM (inactive) | > 100 µM (inactive) | 
CCOC(=O)c1cn(Cc2ccccc2)c(=O)n1Cc1ccccc1 |  | > 100 µM (inactive) | > 100 µM (inactive) | > 100 µM (inactive) | > 100 µM (inactive) | > 100 µM (inactive) | 40.2 µM (inactive) | > 100 µM (inactive) |  | > 100 µM (inactive) | 75 µM (inactive) | > 100 µM (inactive) | > 100 µM (inactive) | > 100 µM (inactive) | > 100 µM (inactive) | > 100 µM (inactive) | > 100 µM (inactive) | > 100 µM (inactive) | > 100 µM (inactive) | 
Nc1ccc(SC23CC4CC(CC(C4)C2)C3)cc1 | > 100 µM (inactive) | > 100 µM (inactive) | > 100 µM (inactive) | > 100 µM (inactive) | > 100 µM (inactive) | > 100 µM (inactive) | > 100 µM (inactive) | > 100 µM (inactive) | 61.8 µM (inactive) | > 100 µM (inactive) | > 100 µM (inactive) |  | 27.5 µM (inactive) | > 100 µM (inactive) | > 100 µM (inactive) | > 100 µM (inactive) | > 100 µM (inactive) | > 100 µM (inactive) | > 100 µM (inactive) | 
C[C@@H]1C[C@@H]([C@H](O)CC2CC(=O)NC(=O)C2)C(=O)[C@@H](C)C1 [CYCLOHEXIMIDE] |  | 0.0199 µM (active) | 0.0532 µM (active) | 0.0352 µM (active) | 0.0291 µM (active) | 0.0378 µM (active) | 0.0362 µM (active) | 0.0462 µM (active) |  | 0.0933 µM (active) | 0.0366 µM (active) | 0.083 µM (active) | 0.0315 µM (active) | 0.0431 µM (active) | 0.131 µM (active) | 0.0532 µM (active) | 0.0352 µM (active) | 0.0248 µM (active) | 0.118 µM (active) | 
C/C(CN1C(=O)c2ccccc2C1=O)=N\NS(=O)(=O)c1cccc([N+](=O)[O-])c1 |  | > 100 µM (inactive) | > 100 µM (inactive) | > 100 µM (inactive) | > 100 µM (inactive) | > 100 µM (inactive) | > 100 µM (inactive) | > 100 µM (inactive) |  | > 100 µM (inactive) | > 100 µM (inactive) | > 100 µM (inactive) | > 100 µM (inactive) | > 100 µM (inactive) | > 100 µM (inactive) | > 100 µM (inactive) | > 100 µM (inactive) | > 100 µM (inactive) | > 100 µM (inactive) | 
O=C1OC(=O)C23CSCC12C1C=CC3O1 (stereo not drawn) |  | > 100 µM (inactive) | > 100 µM (inactive) | > 100 µM (inactive) | > 100 µM (inactive) | > 100 µM (inactive) | > 100 µM (inactive) | > 100 µM (inactive) |  | > 100 µM (inactive) | > 100 µM (inactive) | > 100 µM (inactive) | > 100 µM (inactive) | > 100 µM (inactive) | > 100 µM (inactive) | > 100 µM (inactive) | > 100 µM (inactive) | > 100 µM (inactive) | > 100 µM (inactive) | 
OC(c1ccccc1)C(F)(F)c1nc2ccccc2o1 (stereo not drawn) | > 100 µM (inactive) |  | > 100 µM (inactive) | > 100 µM (inactive) | > 100 µM (inactive) | > 100 µM (inactive) | 70 µM (inactive) | > 100 µM (inactive) | > 100 µM (inactive) | > 100 µM (inactive) |  | > 100 µM (inactive) | > 100 µM (inactive) | > 100 µM (inactive) |  | > 100 µM (inactive) | > 100 µM (inactive) | 77.1 µM (inactive) | > 100 µM (inactive) | 
CC1(c2cccc(N)c2)C2C(=O)NC(=O)C1C(=O)NC2=O (stereo not drawn) |  | 29 µM (inactive) | 44.3 µM (inactive) | 23.7 µM (inactive) | 28.2 µM (inactive) | 52.2 µM (inactive) | 16 µM (inactive) | 34 µM (inactive) |  | 45 µM (inactive) | 33.9 µM (inactive) | 28.1 µM (inactive) | 26.1 µM (inactive) | 28.6 µM (inactive) | 21.7 µM (inactive) | 36.7 µM (inactive) | 38.6 µM (inactive) | 18.5 µM (inactive) | 33.3 µM (inactive) | 
O=C(C(Cl)Cl)N(O)c1ccccc1OCc1ccccc1 | 44.8 µM (inactive) | 49.2 µM (inactive) | 68.2 µM (inactive) | 17 µM (inactive) | 32.8 µM (inactive) | 1.9 µM (inactive) | 34.2 µM (inactive) | 24.8 µM (inactive) | 56.5 µM (inactive) | 22 µM (inactive) | 33.8 µM (inactive) | 29.4 µM (inactive) | 86.3 µM (inactive) | 31.3 µM (inactive) | 27.7 µM (inactive) | > 100 µM (inactive) | 37.4 µM (inactive) |  | 24.3 µM (inactive) | 
O=C1CCC(N2C(=O)c3ccccc3C2=O)C(=O)N1 (stereo not drawn) [THALIDOMIDE] |  | > 100 µM (inactive) | > 100 µM (inactive) | > 100 µM (inactive) | > 100 µM (inactive) | > 100 µM (inactive) | > 100 µM (inactive) | > 100 µM (inactive) | > 100 µM (inactive) | > 100 µM (inactive) | > 100 µM (inactive) | > 100 µM (inactive) | > 100 µM (inactive) |  |  | > 100 µM (inactive) |  | > 100 µM (inactive) | > 100 µM (inactive) | > 100 µM (inactive)
O=c1cccc(Cl)[nH]1 | > 100 µM (inactive) | > 100 µM (inactive) | > 100 µM (inactive) | > 100 µM (inactive) | > 100 µM (inactive) |  | > 100 µM (inactive) | > 100 µM (inactive) | > 100 µM (inactive) | > 100 µM (inactive) | > 100 µM (inactive) | > 100 µM (inactive) | > 100 µM (inactive) | > 100 µM (inactive) | > 100 µM (inactive) | > 100 µM (inactive) | > 100 µM (inactive) | 27 µM (inactive) | > 100 µM (inactive) | 
